Measured values taken from US9976183B2, “Biomarkers for cancers responsive to modulators of HEC1 activity” (TAIVEX THERAPEUTICS CORPORATION, priority 2011, dated 2018).
Values belong to the molecule of their own block, whether it stands above or below them.

Tests used:
Format in all cases: cell-based
A549 = assay: Drug sensitivity, MTS cell viability assay (GI50); conditions: Homo sapiens, A549, 96 hours
Method: (§1) Drug sensitivity: Cell lines were screened for drug sensitivity by treatment with specified drugs 24 hours after seeding in appropriate seeding numbers into 96 well plates containing low glucose DME with 10% FBS. The drug was added to the plate in triplicate wells, and the cells are incubated in drug treated medium for 96 hours before cell viability was determined by MTS assay using CellTiter 96® Aqueous non-radioactive cell proliferation assay system (Promega, Madison, Wis. 53711 USA). The MTS assay was performed according to the manufacturer's instructions. Optical density was measured using a Bio-Tek 340 spectrophotometer (Bio-Tek, Winooski, Vt. 05404) and optical readings were then processed in Excel (Microsoft, Redmond, Wash. 98052-7329) and GraphPad Prism 5 linear regression software (GraphPad Software, La Jolla, Calif. 92037 USA) to determine concentration-response curves for calculating relative GI50s. […] The % growth inhibition of the test drug on cells were calculated as: [1−(Test Value)/(Control Value)]×100; these values were used to plot concentration-response curves, and then analyzed with linear regression software.

BT474 = assay: Drug sensitivity, MTS cell viability assay (GI50); conditions: Homo sapiens, BT-474, BT474, 96 hours
Method: as §1

COLO205 = assay: Drug sensitivity, MTS cell viability assay (GI50); conditions: Homo sapiens, COLO 205, COLO205, 96 hours
Method: as §1

HCC1954 = assay: Drug sensitivity, MTS cell viability assay (GI50); conditions: Homo sapiens, HCC1954, 96 hours
Method: as §1

HCT116 = assay: Drug sensitivity, MTS cell viability assay (GI50); conditions: Homo sapiens, HCT-116, HCT116, 96 hours
Method: as §1

HeLa = assay: Drug sensitivity, MTS cell viability assay (GI50); conditions: Homo sapiens, 96 hours
Method: as §1

Hep3B = assay: Drug sensitivity, MTS cell viability assay (GI50)
Method: as §1

HepG2 [1] = assay: Drug sensitivity, MTS cell viability assay (GI50); conditions: Homo sapiens; HepG2, 96 hours, MTS
Method: as §1

Hs578T = assay: Drug sensitivity, MTS cell viability assay (GI50); conditions: Homo sapiens, Hs-578T, 96 hours
Method: as §1

KG-1 = assay: Drug sensitivity, MTS cell viability assay (GI50); conditions: Homo sapiens, KG-1, 96 hours
Method: as §1

MCF7 = assay: Drug sensitivity, MTS cell viability assay (GI50); conditions: Homo sapiens, MCF7, 96 hours
Method: as §1

MDA-MB-453 = assay: Drug sensitivity, MTS cell viability assay (GI50); conditions: Homo sapiens, MDA-MB-453, 96 hours
Method: as §1

MOLM-13 = assay: Drug sensitivity, MTS cell viability assay (GI50); conditions: Homo sapiens, MOLM-13, 96 hours
Method: as §1

MOLT-4 = assay: Drug sensitivity, MTS cell viability assay (GI50); conditions: Homo sapiens, MOLT-4, 96 hours
Method: as §1

MV4-11 = assay: Drug sensitivity, MTS cell viability assay (GI50); conditions: Homo sapiens, MV4-11, 96 hours
Method: as §1

N87 = assay: Drug sensitivity, MTS cell viability assay (GI50); conditions: N87, 96 hours
Method: as §1

NCI-H520 = assay: Drug sensitivity, MTS cell viability assay (GI50); conditions: Homo sapiens, NCI-H520, 96 hours
Method: as §1

PC3 = assay: Drug sensitivity, MTS cell viability assay (GI50); conditions: Homo sapiens, PC-3, PC3, 96 hours
Method: as §1

PLC/PRF/5 = assay: Drug sensitivity, MTS cell viability assay (GI50); conditions: Homo sapiens, PLC/PRF/5, 96 hours
Method: as §1

RPMI8226 = assay: Drug sensitivity, MTS cell viability assay (GI50); conditions: Homo sapiens, RPMI-8226, RPMI8226, 96 hours
Method: as §1

RS4:11 = assay: Drug sensitivity, MTS cell viability assay (GI50); conditions: Homo sapiens, RS4:11, 96 hours
Method: as §1

T47D = assay: Drug sensitivity, MTS cell viability assay (GI50); conditions: Homo sapiens, 96 hours
Method: as §1

U-937 = assay: Drug sensitivity, MTS cell viability assay (GI50); conditions: Homo sapiens, U-937, 96 hours
Method: as §1

U2OS = assay: Drug sensitivity, MTS cell viability assay (GI50); conditions: Homo sapiens, 96 hours
Method: as §1

ZR-75-30 = assay: Drug sensitivity, MTS cell viability assay (GI50); conditions: Homo sapiens, ZR-75-30, 96 hours
Method: as §1

MEX-SA/Dx5 = assay: Drug sensitivity, MTS assay, drug resistant cell line; conditions: MEX-SA/Dx5, multi-drug resistant uterine sarcoma
Method: as §1

HepG2 [2] = assay: Synergy of Hec1 inhibitor with cytotoxic drug (combination index, MTS); set-up: key: CI = (CA,X/ICx,A)+(CB,X/ICx,B) at x% drug effect
Method: (§2) Synergy: GI50s for selected drugs were determined and used to calculate a concentration ratio for use synergy assays with Hec1 inhibitors. Cells were treated with drugs 24 hours after being seeded in appropriate seeding numbers into 96 well plates containing low glucose DME with 10% FBS. […] Cell viability was determined by MTS assay using a CellTiter 96® Aqueous non-radioactive cell proliferation assay system (Promega, Madison, Wis. 53711 USA) according to the manufacturer's instructions. Optical density was determined using a Bio-Tek 340 spectrophotometer (Bio-Tek, Winooski, Vt. 05404) and were then processed using Excel (Microsoft, Redmond, Wash. 98052-7329) and GraphPad Prism 5 linear regression software (GraphPad Software, La Jolla, Calif. 92037 USA) to determine concentration-response curves for calculating relative GI50s. Synergy was determined by calculating a combination index value using the formula CI (combination index)=(CA,X/ICx,A)+(CB,X/ICx,B), where CA,X and CB,X are the concentrations of drug A and drug B used in combination to achieve x % drug effect. ICx,A and ICx,B are the concentrations for single agents to achieve the same effect.
(§3) Hec1 inhibitor-responsive cancer cells used for screening were treated with a mixture of Hec1 inhibitor and select anti-cancer drug at appropriate concentration ratios and evaluated for cell viability.

PCL/PRF/5 = assay: as above; set-up: key: CI = (CA,X/ICx,A)+(CB,X/ICx,B) at x% drug effect
Method: as §2, §3

[3] = in combination with doxorubicin

GI50 (A549): > 10000 nM | GI50 (BT474): 85.7 nM | GI50 (COLO205): 40.2 nM | GI50 (HCC1954): > 10000 nM | GI50 (HCT116): 38.9 nM | GI50 (HeLa): 15.8 nM | GI50 (Hep3B; 96 hours, listed as 110001): 104 nM | GI50 (Hep3B; Homo sapiens, 96 h): 96.1 nM | GI50 (HepG2 [1]): 273 nM | GI50 (MCF7): 63.7 nM | GI50 (MDA-MB-453): 23.6 nM | GI50 (MOLM-13): 315 nM | GI50 (MOLT-4): > 30000 nM | GI50 (MV4-11): 231 nM | GI50 (NCI-H520): 67.9 nM | GI50 (PC3): 60 nM | GI50 (RPMI8226): 27.2 nM | GI50 (RS4:11): 254 nM | GI50 (T47D): 17.1 nM | GI50 (U-937): 22 nM | GI50 (U2OS): 139 nM
Structure (SMILES): COc1ccc(Oc2cc(C)c(-c3csc(NC(=O)c4ccncc4)n3)c(C)c2)cc1 [compound 101001, N-(4-(4-(4-methoxyphenoxy)-2,6-dimethylphenyl)thiazol-2-yl)isonicotinamide]
GI50 (Hs578T): 143 nM | GI50 (KG-1): 28.9 nM | GI50 (N87): > 30000 nM | GI50 (PLC/PRF/5): 91.6 nM | GI50 (ZR-75-30): 76.8 nM | GI50 (MEX-SA/Dx5): 34.9 nM

Structure (SMILES): COCCOc1cnc(Sc2cc(C)c(-c3csc(NC(=O)c4ccncc4)n3)c(C)c2)cn1 [compound 110095, N-(4-(4-(5-(2-methoxyethoxy)pyrazin-2-ylthio)-2,6-dimethylphenyl)thiazol-2-yl)isonicotinamide]
Combination Index (HepG2 [2]; in combination with KX01): 2.32 | Combination Index (HepG2 [2]; [3]): 3.00 | Combination Index (HepG2 [2]; in combination with sorafenib): 1.88 | Combination Index (HepG2 [2]; in combination with topotecan): 3.03 | Combination Index (PCL/PRF/5; in combination with KX01): 1.08 | Combination Index (PCL/PRF/5; in combination with Taxol): 0.81 | Combination Index (PCL/PRF/5; [3]): 2.31 | Combination Index (PCL/PRF/5; in combination with sorafenib): 1.41 | Combination Index (PCL/PRF/5; in combination with topotecan): 2.83
